How the values were obtained:
CHKA [1] = target: T1, CHKA (Homo sapiens, UniProt P35790); assay: PK/LDH coupled choline kinase enzyme assay; assay type: biochemical; set-up: host or cells: E. coli BL21(DE3); conditions: concentration-dependent
Protocol: carried out using REFMAC[9] and COOT,[10] and concluded when no improvements resulted for Rfree and Rwork values, and when density maps indicated no further changes were justified.
Choline Coupled Enzymatic Assay
CHKA (120 ng, 24 µg/ml) was arrayed (5 µL) into a 96 well semi-skirted real time PCR plate. 4-fold dilution series and vehicle controls (0.5% DMSO) were prepared in a separate plate. A further DMSO control was included for use with a no protein well control. The dilutions (17 µL) were mixed with reaction buffer (136 µL, see Table below) and arrayed (45 µL) onto the CHKA-containing PCR plate.
After mixing, bubbles were removed by centrifugation (1000 × g, 1 min) and absorbance read at 340 nm on a PheraSTAR FSX (BMG Labtech), reading every minute for 10 min. Non-linear curve fitting and graph generation was performed using Graphpad Prism 8 software.
Components of the assay reaction buffer.
Component Stock concentration Volume per buffer Final reaction […]
Experiments were performed as described earlier with few modifications. In short, 3 replicates of intact HepG2 cells were treated with 30 µM UNC0638, UNC373 or corresponding volume of DMSO in medium-free experimental buffer for 60 min at 37 °C with end-over-end rotation. For lysates: Washed K562 cells were resuspended in medium-free experimental buffer and lysed by three freeze-thaw cycles. […]

CHKA [2] = target: T1, CHKA; assay: Differential scanning fluorimetry (DSF); assay type: binding; set-up: host or cells: E. coli BL21(DE3); conditions: 10 µM compound, 2 µM CHKA
Protocol: mM NaCl, 5% glycerol, 500 mM imidazole, 0.5% TCEP, pH 7.5), the eluent was concentrated, and further purified by size exclusion chromatography using a HiLoad 16/600 Superdex S200 column (Cytiva) pre-equilibrated in Buffer C (20 mM HEPES, 150 mM NaCl, pH 7.5). The resulting protein purity was assessed by SDS-PAGE, and protein identity was confirmed by tryptic digest analysis. Protein concentration was determined to be 35.5 mg/mL, and was calculated using a theoretical molar extinction coefficient of 58830 M-1cm-1 as determined by ProtParam.[5] […]
Differential Scanning Fluorimetry (DSF)
DSF buffer (20 mM HEPES, 150 mM NaCl, 0.5 mM TCEP, pH 7.5) containing 5x SYPRO Orange (Thermo Fisher Scientific) and CHKA (2 µM) was incubated with 10 µM compound at 2% DMSO final concentration in a 96-well semi-skirted real time PCR plate. Fluorescence was measured in each well over a 40-80 °C gradient using a Stratagen MX3005p qPCR instrument (Agilent Technologies). […]

T1 sequence (P35790 75-457 limits assumed): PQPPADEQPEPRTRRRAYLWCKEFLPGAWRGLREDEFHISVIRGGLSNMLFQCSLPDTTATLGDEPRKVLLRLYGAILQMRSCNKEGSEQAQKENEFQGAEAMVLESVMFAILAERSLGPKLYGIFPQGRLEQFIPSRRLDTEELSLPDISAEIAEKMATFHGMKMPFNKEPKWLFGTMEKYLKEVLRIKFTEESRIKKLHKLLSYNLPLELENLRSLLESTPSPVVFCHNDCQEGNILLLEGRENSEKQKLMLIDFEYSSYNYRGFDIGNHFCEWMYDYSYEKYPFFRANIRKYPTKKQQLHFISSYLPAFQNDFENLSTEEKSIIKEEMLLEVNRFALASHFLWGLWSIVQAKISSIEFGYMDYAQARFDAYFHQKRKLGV

SMILES | CHKA catalytic activity (CHKA [1]) | thermal stabilisation of CHKA (DSF) (CHKA [2])
COc1cc2c(NC3CCN(C(C)C)CC3)nc(C3CCCCC3)nc2cc1OCCCN1CCCC1 [UNC0638] | suppressed CHKA catalytic activity | thermal stabilisation
COc1cc2c(N(C)C3CCN(C(C)C)CC3)nc(C3CCCCC3)nc2cc1OCCCN1CCCC1 [UNC0737] | suppressed CHKA catalytic activity | thermal stabilisation

Reference: article PMC11811597, “Phenomics‐Based Discovery of Novel Orthosteric Choline Kinase Inhibitors” (Angewandte Chemie (International Ed. in English), 2025)
